This passage reports IC50 results from PubChem BioAssay AID1949 (Southern Research Institute, 2009).

What is called IC50 is the concentration that inhibits the measured activity by half.

In brackets after ≈: the same amount, converted by molar mass. Records with an inconclusive call do not appear. Activity calls are given as the source filed them. No rule for the calls is given here. A value given as a limit tells only on which side of the number the result lay.

In the assay the test system is M. tuberculosis H37Rv growth inhibition. Briefly: Confirmatory growth inhibition assay against Mycobacterium tuberculosis H37Rv, potency (AID 1949).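 Also: bacteria grown 7 days with compound before Alamar blue readout.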

Consider `Cc1cc2ncn(CC(O)COc3ccc(C(C)C)cc3)c2cc1C` (configuration not stated), for which the IC50 was 5.42 µg/mL (≈ 16 µM).
With `O=C(Nc1ccc(C(F)(F)F)cc1)C1COc2ccccc2O1` (configuration not stated) the figure was 37.9 µg/mL (≈ 117 µM); with `O=[N+]([O-])c1ncn(Cc2ccc(F)cc2Cl)n1`, 6.92 µg/mL (≈ 27 µM).
In the case of `CCOC(=O)/C=C/C(=O)Nc1nc(-c2ccccc2)cs1`, the IC50 is 0.53 µg/mL (≈ 1.75 µM).
With `N#Cc1cccc(NC(=O)Nc2cccc(Cl)c2)c1` the figure was 6.26 µg/mL (≈ 23 µM).
With `CC(C)Oc1ccc(NC(=O)CSc2nc3ccccc3s2)cc1` the figure was 6.12 µg/mL (≈ 17.1 µM); with `CN1CCN(c2ccc(NC(=S)NC(=O)c3ccc(-c4cccc(Cl)c4)o3)cc2)CC1`, 0.38 µg/mL (≈ 0.835 µM); with `O=C(CCCC(=O)N1CCC(Cc2ccccc2)CC1)N1CCC(Cc2ccccc2)CC1`, 12.1 µg/mL (≈ 27.1 µM).
The figure for `Cc1ccc(NCCC(=O)c2ccc([N+](=O)[O-])cc2)cc1Cl` is 19.6 µg/mL (≈ 61.3 µM).
As to `CCOc1ccc(OCC(=O)Nc2cc(C)cc(C)c2)cc1`, the IC50 was 1.51 µg/mL (≈ 5.04 µM).
The figure for `Cc1cc(OC(F)F)ccc1NC(=O)Nc1ccc([N+](=O)[O-])cc1` is 22.9 µg/mL (≈ 67.9 µM); for `O=C(Oc1c(Cl)cc(Cl)c2cccnc12)c1ccccc1[N+](=O)[O-]` it is 0.2 µg/mL (≈ 0.551 µM); for `CN1CCN(c2ccc(NC(=O)c3ccc(-c4cccc([N+](=O)[O-])c4)o3)cc2)CC1` it is 8.66 µg/mL (≈ 21.3 µM).
With `O=C(Nc1cccc(C(F)(F)F)c1)C1CCN(C(=O)c2ccc(-c3ccccc3)cc2)CC1` the figure was 5.84 µg/mL (≈ 12.9 µM); with `CSc1nsc(SCC(=O)N2CCN(c3ccccc3)CC2)n1`, 0.35 µg/mL (≈ 0.955 µM).
The figure for `Clc1ccc(OCCCn2ccnc2)cc1Cl` is 3.98 µg/mL (≈ 14.7 µM); for `O=C(COc1ccc(Br)cc1)c1ccc(F)cc1` it is 10.7 µg/mL (≈ 34.5 µM); for `CC1CCN(C(=S)NC(=O)c2ccc(Cl)cc2)CC1` it is 0.35 µg/mL (≈ 1.18 µM).
As for `COc1cc([N+](=O)[O-])ccc1NC(=S)Nc1ccc(OC(F)F)c(Cl)c1`, the IC50 was 3.41 µg/mL (≈ 8.44 µM).
With `Cc1ccc(-c2csc3ncn(C(C)C(=O)OCc4ccccc4Cl)c(=O)c23)cc1` (configuration not stated) the figure was 0.74 µg/mL (≈ 1.69 µM); with `COc1ccc(-c2csc(-c3cccnc3)n2)cc1C`, 12.9 µg/mL (≈ 45.9 µM).
With `COC(=O)CSc1[nH]c2ccc(Br)cc2c1[N+](=O)[O-]` the figure was > 50 µg/mL (inactive); with `CCOc1ccc(S(=O)(=O)Nc2ccc(C(F)(F)F)cc2)cc1`, 6.25 µg/mL (≈ 18.1 µM).
With `Cc1cc(NS(=O)(=O)c2ccc(NC(=O)c3ccc(C(C)(C)C)cc3)cc2)no1` the figure was 1.76 µg/mL (≈ 4.26 µM); with `Fc1ccc(-c2nn(-c3ccccc3)cc2CNCc2ccccc2)cc1`, 5.86 µg/mL (≈ 16.4 µM).
For the compound `CCCCOc1ccc(NC2=NC3(CCCCC3)N=C(N)N2)cc1`, the IC50 is 12.1 µg/mL (≈ 36.6 µM).
The figure for `Cc1ccc2nc(NCc3ccccc3)[nH]c2c1` is 1.49 µg/mL (≈ 6.28 µM).
With `CCOc1ccc(C(=O)NC(=S)Nc2ccc(CN3CCOCC3)cc2)cc1Cl` the figure was 15.7 µg/mL (≈ 36.2 µM); with `O=C(Nc1ccc(F)c(Cl)c1)C1CC2CCCC(C1)C2=O` (configuration not stated), 39.7 µg/mL (≈ 128 µM).
The figure for `O=C(Oc1ccc(Cl)c2cccnc12)c1cccc(Br)c1` is 10.6 µg/mL (≈ 29.3 µM); for `O=C(Nc1ccc(OC(F)(F)F)cc1)Nc1cccc([N+](=O)[O-])c1` it is 0.19 µg/mL (≈ 0.557 µM).
Regarding `O=C(Nc1ccc(Cl)c(Cl)c1)Nc1ccc(Br)cc1F`, the IC50 was 0.37 µg/mL (≈ 0.979 µM).
`CCOC(=O)C1CCCN(c2ncnc3c2cnn3-c2ccc(Cl)cc2)C1` (configuration not stated): the IC50 is 4.21 µg/mL (≈ 10.9 µM).
With `CCOC(=O)c1c(NC(=S)NC(C)c2ccncc2)sc2c1CCCCCC2` (configuration not stated) the figure was 32.8 µg/mL (≈ 78.6 µM); with `CCOC(=O)CSc1cc(C)nc2ccc(C)cc12`, 1.66 µg/mL (≈ 6.03 µM); with `COC(=O)COc1ccc(S(=O)(=O)Nc2cccc(Cl)c2C)cc1`, 9.72 µg/mL (≈ 26.3 µM).
With `COc1ccc(-c2cc(C(F)F)n3ncc(C(=O)NCCCn4ccnc4)c3n2)cc1` the figure was 8.99 µg/mL (≈ 21.1 µM); with `Cc1ccc(Cn2cnc3sc4c(c3c2=O)CCCC4)cc1`, 8.41 µg/mL (≈ 27.1 µM); with `CCCc1ccc(OC(=O)c2ccc(OC)c(OC)c2)cc1`, 2.37 µg/mL (≈ 7.89 µM).
With `O=C(Nc1ccc(F)c(Cl)c1)C12CC3CCC(CC(C3)C1)C2` the figure was under 0.1 µg/mL; with `Cc1cc(Cl)ccc1N1CCN(CCNC(=O)Nc2ccc(F)cc2)CC1`, > 50 µg/mL (inactive).
With `COCCNCCCCOc1ccc(Cl)cc1C(C)(C)C`, the IC50 is 4.62 µg/mL (≈ 14.7 µM).
With `c1ccc2cc3nc4c(ccc5ccccc54)nc3cc2c1` the figure was under 0.1 µg/mL.
With `O=S(=O)(Nc1cc(Br)c(O)c2ccccc12)c1ccc(F)cc1` the figure was 3.06 µg/mL (≈ 7.72 µM); with `Cc1ccc(NC(=O)C(=O)NNC(=O)c2ccco2)cc1Cl`, 1.41 µg/mL (≈ 4.38 µM).
The figure for `CC(NCC(O)COc1ccccc1C(C)(C)C)c1ccccc1` (configuration not stated) is 2.55 µg/mL (≈ 7.79 µM); for `O=C(CNS(=O)(=O)c1ccc([N+](=O)[O-])cc1)OCc1c(F)cccc1Cl` it is 17.3 µg/mL (≈ 43 µM).
Consider `O=C(CC12CC3CC(CC(C3)C1)C2)NC(=S)Nc1ccc2c(c1)OCCO2`, for which the IC50 was > 50 µg/mL (inactive).
The figure for `Cc1cc2c(cc1C)N(Cc1ccc(C(C)(C)C)cc1)C1=NCCCN12` is 1.2 µg/mL (≈ 3.45 µM).
With `CC(=O)c1ccc(NC(=O)CSc2ccc(F)cc2)cc1` the figure was 7.95 µg/mL (≈ 26.2 µM); with `Cc1ccc(OCC(=O)c2ccc(F)cc2)cc1C`, 2.46 µg/mL (≈ 9.52 µM); with `O=C1CC(c2ccc(Cl)cc2)CC2=C1C(c1ccc(C(F)(F)F)cc1)Nc1ccccc1N2` (configuration not stated), 2.14 µg/mL (≈ 4.56 µM).
